{
  "source": "patent US20120252045A1",
  "about": "“METHOD OF ASSESSING ISLET FUNCTION” (priority 2009, published 2012)",
  "key": {"adult porcine islets": {"system": "adult porcine islets", "conditions": "vs non-NaAz treated cells", "protocol": "(§1) Porcine islet OCRs were assessed in triplicate aliquots of 1000 IEQ. Controls comprising media alone and heat-killed islets (1000 IEQ ×3 incubated for 1 hour at 60° C.) were assayed in parallel. OCRs were measured using a fiber optic sensor oxygen monitoring system (Instech Laboratories Plymouth Meeting, Pa.), which quantifies the decrease in oxygen partial pressure (pO2) over time, as described by Papas et al., “A Stirred Microchamber for Oxygen Consumption Rate Measurements with Pancreatic Islet Cells,” Biotechnol Bioeng 2007; 98: 1071-1082. OCRs were standardized to the amount of DNA in each chamber (nmol/min-mgDNA), which was determined using a Quant-iT PicoGreen dsDNA kit (Molecular Probes, Eugene, Oreg.).\nThe experiment was repeated 3 times."}, "β-TC6 cells": {"system": "β-TC6 cells", "conditions": "n=4", "protocol": "as §1\nReductions in OCR were assessed by comparing the effect of the NaAz on the OCR measurements to the OCR capability of non-treated cells. BTC6 cells and Hela cells were incubated on 150 mm culture dishes for 2 days in a 37° C. incubator with a 5% CO2 environment. The cells were then removed using 5 mM EDTA/PBS and washed once with PBS. The resulting cell pellet was resuspended in 5 mL of DMEM (Sigma) supplemented with 5% FCS (Sigma) and Penicillin/Streptomycin (Invitrogen). Cells were then incubated with various concentrations (0.01, 0.1, 1.0 and 10 mg/ml) of sodium azide (Sigma) for 10 minutes prior to measuring their oxygen consumption rates."}},
  "note": "Where two headings read alike, the source gives them in different places.",
  "data": [
    {"smiles": "[N-]=[N+]=[N-]", "note": "[NaAz, sodium azide]", "values": [
      {"measurement": "reduction in OCR", "setting": "adult porcine islets; islets incubated with 0.1 mg/ml NaAz for 10 minutes", "value": 37.6, "unit": "%"},
      {"measurement": "reduction in OCR", "setting": "adult porcine islets; islets incubated with 1 mg/ml NaAz for 10 minutes", "value": 59.7, "unit": "%"},
      {"measurement": "reduction in OCR", "setting": "adult porcine islets; islets incubated with 10 mg/ml NaAz for 10 minutes", "value": 84.2, "unit": "%"},
      {"measurement": "reduction in OCR", "setting": "β-TC6 cells; β-TC6 cells incubated with 0.1 mg/ml NaAz for 10 minutes", "value": "29.8±4.5", "unit": "%"},
      {"measurement": "reduction in OCR", "setting": "β-TC6 cells; β-TC6 cells incubated with 1 mg/ml NaAz for 10 minutes", "value": "71.2±6.6", "unit": "%"},
      {"measurement": "reduction in OCR", "setting": "β-TC6 cells; β-TC6 cells incubated with 10 mg/ml NaAz for 10 minutes", "value": "85.9±2.3", "unit": "%"}
    ]}
  ]
}
